In the OPERA property sets (Mansouri et al. 2018):
Where a SMILES comes first, the peptide text is derived from it.

Row | SMILES | logP
1 | CC(=O)NC(CCCCN(Cc1ccccc1)C(=O)N(CCCl)N=O)C(=O)NCc1ccccc1 (stereo not drawn) | 2.46
2 | COC(=O)Nc1c(C(C)C)cccc1C(C)C | 2.2
3 | OCCCCCCCCCNc1[nH]cnc2ncnc1-2 | 2.75
4 | COc1ccc(C2Cc3c(C)cccc3N(CCN(C)C)C(=O)C2OC(C)=O)cc1 (stereo not drawn) | 3.7
5 | CCOC(=O)C(=Cc1ccccc1)S(=O)(=O)c1ccc([N+](=O)[O-])cc1 | 3.2
6 | CC(C)(CO)N=O | -0.52
7 | CCOc1cc2ncnc(Nc3cccc(Cl)c3)c2cc1OCC | 4.31
8 | Brc1c2ccccc2cc2ccccc12 | 5.37
9 | N#Cc1cccc(Cc2ncccn2)c1 | 1.46
10 | CSCCC(NC(=O)C(N)Cc1ccccc1)C(=O)O (stereo not drawn) (H-Phe-Met-OH; configuration not given here) | -1.59
11 | Nc1nc(Cl)nc2c1ncn2[C@H]1C[C@H](O)[C@@H](CO)O1 | 0.02
12 | Clc1cccc(Oc2c(Cl)cc(Cl)cc2Cl)c1 | 6.05
13 | Cc1[nH]cnc1CSCCNC1=C([N+](=O)[O-])CCN1 | -0.87
14 | COc1coc(CCl)cc1=O | 0.16
15 | CCN(CC)CCC(=O)Nc1ccccc1 | 2.31
16 | O=C1N=C(N2CCOCC2)CN1c1ccc(Cl)c(Cl)c1 | 1.9
17 | CC(C)NCC(O)COc1ccc(-c2ncc[nH]2)cc1 (stereo not drawn) | 1.4
18 | NC(Cc1ccc(Cl)cc1)C(=O)O (stereo not drawn) | -0.47
19 | Cc1ccc(CO)c(C=NNC(=O)c2ccc(N)cc2)c1O | 2.16
20 | C[N+](C)([O-])CCCCc1ccccc1 | 0.46
21 | CC1CCC2CC(=O)N(CCc3ccccc3)C3OC4(C)CCC1C23OO4 (stereo not drawn) | 3.94

Row | SMILES | logP
22 | COC(=O)C(C)NP(=O)(OCC1C=CC(n2cc(C)c(=O)[nH]c2=O)O1)Oc1ccc(Cl)cc1 (stereo not drawn) | 1.43
23 | COc1c2c(cc3c1-c1ccc(OC)c(=O)cc1C(NC(C)=O)CC3)OCO2 (stereo not drawn) | 1.6
24 | O=c1cc(CCl)oc(Br)c1O | 1.08
25 | CCc1ccccc1CNc1[nH]cnc2ncnc1-2 | 2.92
26 | CCC1(c2ccncc2)CCC(=O)NC1=O (stereo not drawn) | 0.58
27 | CC(C)=CC1C(C(=O)OCc2cccc(C(=O)c3ccccc3)c2)C1(C)C (stereo not drawn) | 6.54
28 | O=C(NC1CCCCCCC1)NS(=O)(=O)c1cnccc1NC1CCCCCC1 | 5.34
29 | Cc1oc2nc3oc(=O)ccc3c(C)c2c1C | 2.19
30 | Cc1oc2nc3oc(=O)ccc3cc2c1C | 1.97
31 | CC(=O)OCC1OC(n2ccc(=O)[nH]c2=O)C(OC(C)=O)C1OC(C)=O (stereo not drawn) | -0.36
32 | COc1cc(OC)nc(Oc2cccc(Cl)c2C(=O)O)n1 | 2.23
33 | CCCCCC(O)C=CC1C(O)CC(O)C1CC=CCCCC(=O)OC (stereo not drawn) | 3.07
34 | COC(=O)N1CCN(C(=O)Cc2ccc(Cl)c(Cl)c2)C(CN2CCCC2)C1 (stereo not drawn) | 4.1
35 | COc1cc2ncnc(Nc3cccc(Br)c3)c2cc1OC | 3.49
36 | O=C1C=C(N2CC2)C(=O)C=C1N1CC1 | 0.18
37 | O=C1c2cc([N+](=O)[O-])ccc2OCN1CCO[N+](=O)[O-] | 1.66
38 | CCCCCNc1ncnc2nc[nH]c12 | 2.58
39 | COC(=O)c1c(Oc2nc(OC)cc(OC)n2)cccc1C(C)=NOCc1ccccc1 | 4.01
40 | O=C(NC1CCCCC1)NS(=O)(=O)c1cnccc1NC1CCCCC1 | 4.23
41 | COC(=O)C(C)NP(=O)(OCC1C=CC(n2cc(C)c(=O)[nH]c2=O)O1)Oc1ccc(C(C)=O)cc1 (stereo not drawn) | 0.9
42 | NC(Cc1ccc(O)cc1)C(=O)N1CCCC1C(=O)NCC(=O)NC(Cc1c[nH]c2ccccc12)C(=O)O (stereo not drawn) (H-YPGW-OH; configuration not given here) | -1.25

Continued, values first:

Row | logP | SMILES
43 | 3.46 | CCCCCCCOC(C)=O
44 | 0.49 | CNS(=O)(=O)c1nnc(NC(C)=O)s1
45 | 4.1 | COc1ccc(C2Cc3c(cccc3C(F)(F)F)N(CCN(C)C)C(=O)C2O)cc1 (stereo not drawn)
46 | 2.23 | OCCCCCCCCNc1[nH]cnc2ncnc1-2
47 | 1 | CC(C)(C)[N+]([O-])=Cc1cccc(O)c1
48 | 0.9 | CCCCc1c(O)c(=O)cc(C)n1C
49 | 3.9 | COc1ccc(CCNCC(O)COc2ccc(-c3nc(C(C)C)c[nH]3)cc2)cc1OC (stereo not drawn)
50 | 2.12 | CCCCNC1CC(OC2CC(O)(C(=O)CO)Cc3c(O)c4c(c(O)c32)C(=O)c2c(OC)cccc2C4=O)OC(C)C1O (stereo not drawn)
51 | -0.63 | CC(C)CC(NC(=O)C(C)N)C(=O)NC(CC(C)C)C(=O)NCC(=O)NC(Cc1ccccc1)C(=O)O (stereo not drawn) (H-ALLGF-OH; configuration not given here)
52 | 2.8 | NC1=NCC(COc2ccc(-c3ccccc3)cc2)O1 (stereo not drawn)
53 | 2.39 | Cc1cc2ccc(=O)oc2c2ccoc12
54 | 1.17 | CC(C)SCc1cc(=O)c(O)co1
55 | 3.58 | O=C(Nc1ncc([N+](=O)[O-])s1)c1ccc(Br)cc1
56 | 1.7 | CSC(=S)N1CCCCC1
57 | -0.6 | CSCC(NC(C)=O)C(N)=O (stereo not drawn)
58 | 1 | O=C(NCCNCC(O)COc1ccc(CCOCCOCC2CC2)cc1)N1CCC(O)CC1 (stereo not drawn)
59 | 3.35 | Clc1ccccc1N1CCN(CCn2nnc3ccccc32)CC1
60 | 1.58 | Cc1cc2c(nn1)-c1ccccc1C2=O
61 | 4.11 | CCCCON=C(C)c1cccc(Oc2nc(OC)cc(OC)n2)c1C(=O)OC
62 | 0.89 | CCNc1nc(N)nc(OC)n1
63 | 2.8 | C=CC(=O)OC1CCCCC1
64 | 1.38 | CC(C)Nc1[nH]cnc2ncnc1-2
65 | -1.27 | O=C(Cn1cnc([N+](=O)[O-])n1)NCCCO
66 | 3.9 | CCOC(=O)c1[nH]cc(-c2ccc(Cl)cc2)c1N1CCOCC1
67 | 2.74 | c1ccc(N2CCN(CCn3nnc4ccccc43)CC2)cc1
68 | 3.6 | COc1cc2c(Nc3cc(CC(=O)Nc4cccc(F)c4F)[nH]n3)ncnc2cc1OCCCN1CCCC1CO (stereo not drawn)
